Results reported in ChEMBL document CHEMBL3352178, “Antidepressant- and anxiolytic-like activity of 7-phenylpiperazinylalkyl-1,3-dimethyl-purine-2,6-dione derivatives with diversified 5-HT₁A receptor functional profile” (Bioorg Med Chem, 2015).
Calls of active or inactive are those of the source. No cut-off for these calls is given here.

Assays:
[1] = target: 5-hydroxytryptamine receptor 2A (Rattus norvegicus, UniProt P14842); experiment: Displacement of [3H]-ketanserin from 5-HT2AR in rat cortex
[2] = target: 5-hydroxytryptamine receptor 7 (Homo sapiens, UniProt P34969); experiment: Displacement of [3H]]-5-CT from human cloned 5-HT7R expressed in HEK293 cells; type: cell-based
[3] = target: 5-hydroxytryptamine receptor 6 (Homo sapiens, UniProt P50406); experiment: Displacement of [3H]LSD from human cloned 5-HT6R expressed in HEK293 cells; type: cell-based
D(2) dopamine receptor = D(2) dopamine receptor (Rattus norvegicus, UniProt P61169); experiment: Displacement of [3H]-spiperone from dopamine D2 receptor in rat striatum
[4] = target: T1, 5-hydroxytryptamine receptor 1A (Rattus norvegicus, UniProt P19327); experiment: Displacement of [3H]-8-OH-DPAT from 5-HT1AR in rat hippocampus; type: tissue-based
T1 sequence (P19327 whole entry): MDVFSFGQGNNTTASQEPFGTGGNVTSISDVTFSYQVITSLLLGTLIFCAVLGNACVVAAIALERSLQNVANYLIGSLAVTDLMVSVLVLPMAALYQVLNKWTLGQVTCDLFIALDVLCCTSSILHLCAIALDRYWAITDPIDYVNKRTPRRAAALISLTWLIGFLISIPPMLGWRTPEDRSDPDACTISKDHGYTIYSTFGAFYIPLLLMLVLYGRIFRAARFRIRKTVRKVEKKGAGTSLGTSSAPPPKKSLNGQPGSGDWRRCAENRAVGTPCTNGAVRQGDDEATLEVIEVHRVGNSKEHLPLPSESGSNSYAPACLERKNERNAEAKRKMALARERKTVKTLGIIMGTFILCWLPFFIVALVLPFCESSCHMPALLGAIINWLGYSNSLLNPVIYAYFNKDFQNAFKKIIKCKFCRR

Mus musculus [5] = experiment: Anxiolytic-like activity in mouse assessed as increase in number of punished crossings at 1.25 to 5 mg/kg, ip dosed 60 mins before test by four plate test; type: functional, organism-based
Rattus norvegicus [6] = experiment: Inhibition of 8-OH-DPAT-induced lower lip retraction in rat assessed as lower lip retraction scores at 10 mg/kg, ip dosed 45 mins before 8-OH-DPAT; type: functional; settings: route intraperitoneal
Rattus norvegicus [7] = experiment: Induction of lower lip retraction in rat assessed as lower lip retraction scores at 10 mg/kg, ip dosed 15 mins before test; type: functional; settings: route intraperitoneal
Rattus norvegicus [8] = experiment: Induction of lower lip retraction in rat assessed as lower lip retraction scores at 5 mg/kg, ip dosed 15 mins before test; type: functional; settings: route intraperitoneal
Mus musculus [9] = experiment: Anxiolytic-like activity in mouse assessed as increase in number of punished crossings at 0.156 mg/kg, ip dosed 60 mins before test co-administered with 0.625 mg/kg diazepam by four plate test; type: functional, organism-based
Mus musculus [10] = experiment: Inhibition of (+/-)-DOI-induced head twitch response in mouse dosed intraperitoneally 60 mins before (+/-)-DOI injection; type: functional
Mus musculus [11] = experiment: Inhibition of (+/-)-DOI-induced head twitch response in mouse assessed as head twitches per 20 mins at 2.5 mg/kg, ip dosed 60 mins before (+/-)-DOI injection (reference value: 21.6 +/- 3.4/20 mins); type: functional; settings: route intraperitoneal
Mus musculus [12] = experiment: Induction of hypothermia in mouse assessed as change in body temperature at 2.5 mg/kg, ip administered 30 mins before test and measured 30 mins post dose in presence of 0.3 mg/kg, sc 5HT1A receptor antagonist WAY 100635; type: functional, organism-based
Mus musculus [13] = experiment: Induction of hypothermia in mouse assessed as change in body temperature at 2.5 mg/kg, ip administered 30 mins before test and measured 120 mins post dose; type: functional, organism-based; design: dose 2.5 mg/kg
Mus musculus [14] = experiment: Inhibition of (+/-)-DOI-induced head twitch response in mouse assessed as head twitches per 20 mins at 5 mg/kg, ip dosed 60 mins before (+/-)-DOI injection (reference value: 21.6 +/- 3.4/20 mins); type: functional; settings: route intraperitoneal
Mus musculus [15] = experiment: Induction of hypothermia in mouse assessed as change in body temperature at 5 mg/kg, ip administered 30 mins before test and measured 120 mins post dose; type: functional, organism-based; design: dose 5 mg/kg
Mus musculus [16] = experiment: Induction of hypothermia in mouse assessed as change in body temperature at 5 mg/kg, ip administered 30 mins before test and measured 60 mins post dose; type: functional, organism-based; design: dose 5 mg/kg
Mus musculus [17] = experiment: Induction of hypothermia in mouse assessed as change in body temperature at 2.5 mg/kg, ip administered 30 mins before test and measured 60 mins post dose in presence of 0.3 mg/kg, sc 5HT1A receptor antagonist WAY 100635; type: functional, organism-based
Rattus norvegicus [18] = experiment: Inhibition of 8-OH-DPAT-induced lower lip retraction in rat assessed as lower lip retraction scores at 5 mg/kg, ip dosed 45 mins before 8-OH-DPAT; type: functional; settings: route intraperitoneal
Mus musculus [19] = experiment: Effect on spontaneous locomotor activity in mouse at 0.312 mg/kg, ip; type: ADME, organism-based; design: dose 0.312 mg/kg, route intraperitoneal; settings: in vivo
Mus musculus [20] = experiment: Inhibition of (+/-)-DOI-induced head twitch response in mouse assessed as head twitches per 20 mins at 10 mg/kg, ip dosed 60 mins before (+/-)-DOI injection (reference value: 21.6 +/- 3.4/20 mins); type: functional; settings: route intraperitoneal
Mus musculus [21] = experiment: Anxiolytic-like activity in mouse assessed as increase in number of punished crossings at 0.312 mg/kg, ip dosed 60 mins before test by four plate test; type: functional; settings: route intraperitoneal
Mus musculus [22] = experiment: Induction of hypothermia in mouse assessed as change in body temperature at 5 mg/kg, ip administered 30 mins before test and measured 30 mins post dose; type: functional, organism-based; design: dose 5 mg/kg
Mus musculus [23] = experiment: Induction of hypothermia in mouse assessed as change in body temperature at 2.5 mg/kg, ip administered 30 mins before test and measured 90 mins post dose; type: functional, organism-based; design: dose 2.5 mg/kg
Mus musculus [24] = experiment: Inhibition of (+/-)-DOI-induced head twitch response in mouse assessed as head twitches per 20 mins at 1.25 mg/kg, ip dosed 60 mins before (+/-)-DOI injection (reference value: 21.6 +/- 3.4/20 mins); type: functional; settings: route intraperitoneal
Mus musculus [25] = experiment: Induction of hypothermia in mouse assessed as change in body temperature at 2.5 mg/kg, ip administered 30 mins before test and measured 60 mins post dose; type: functional, organism-based; design: dose 2.5 mg/kg
Mus musculus [26] = experiment: Effect on spontaneous locomotor activity in mouse at 0.625 mg/kg, ip; type: ADME, organism-based; design: dose 0.625 mg/kg, route intraperitoneal; settings: in vivo
Mus musculus [27] = experiment: Inhibition of (+/-)-DOI-induced head twitch response in mouse assessed as head twitches per 20 mins at 0.625 mg/kg, ip dosed 60 mins before (+/-)-DOI injection (reference value: 21.6 +/- 3.4/20 mins); type: functional; settings: route intraperitoneal
Mus musculus [28] = experiment: Induction of hypothermia in mouse assessed as change in body temperature at 5 mg/kg, ip administered 30 mins before test and measured 90 mins post dose; type: functional, organism-based; design: dose 5 mg/kg
Mus musculus [29] = experiment: Anxiolytic-like activity in mouse assessed as increase in number of punished crossings at 0.625 mg/kg, ip dosed 60 mins before test by four plate test; type: functional; settings: route intraperitoneal
Mus musculus [30] = experiment: Antidepressant-like activity in mouse assessed as reduction in immobility time at 0.156 to 5 mg/kg, ip dosed 60 mins before test by forced swim test; type: functional, organism-based
Mus musculus [31] = experiment: Induction of hypothermia in mouse assessed as change in body temperature at 2.5 mg/kg, ip administered 30 mins before test and measured 30 mins post dose; type: functional, organism-based; design: dose 2.5 mg/kg
Rattus norvegicus [32] = experiment: Inhibition of 8-OH-DPAT-induced lower lip retraction in rat assessed as lower lip retraction scores at 1 mg/kg, ip dosed 45 mins before 8-OH-DPAT; type: functional; settings: route intraperitoneal
Rattus norvegicus [33] = experiment: Induction of lower lip retraction in rat assessed as lower lip retraction scores at 1 mg/kg, ip dosed 15 mins before test; type: functional; settings: route intraperitoneal

Chain of 5-hydroxytryptamine receptor 2A (P14842 whole entry): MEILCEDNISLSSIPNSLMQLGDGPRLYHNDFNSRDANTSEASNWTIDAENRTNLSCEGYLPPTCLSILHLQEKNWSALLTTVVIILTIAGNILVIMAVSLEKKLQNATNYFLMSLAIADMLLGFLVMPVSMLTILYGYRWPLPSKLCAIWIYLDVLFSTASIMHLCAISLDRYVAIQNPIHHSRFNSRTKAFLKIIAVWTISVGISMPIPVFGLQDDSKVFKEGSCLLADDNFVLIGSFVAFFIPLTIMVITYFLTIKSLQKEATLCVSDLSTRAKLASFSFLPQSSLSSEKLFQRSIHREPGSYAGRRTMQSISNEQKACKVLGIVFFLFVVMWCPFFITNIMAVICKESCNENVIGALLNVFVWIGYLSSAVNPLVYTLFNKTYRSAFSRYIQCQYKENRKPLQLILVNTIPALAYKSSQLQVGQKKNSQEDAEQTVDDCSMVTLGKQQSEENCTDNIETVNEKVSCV
Chain of 5-hydroxytryptamine receptor 6 (P50406 whole entry): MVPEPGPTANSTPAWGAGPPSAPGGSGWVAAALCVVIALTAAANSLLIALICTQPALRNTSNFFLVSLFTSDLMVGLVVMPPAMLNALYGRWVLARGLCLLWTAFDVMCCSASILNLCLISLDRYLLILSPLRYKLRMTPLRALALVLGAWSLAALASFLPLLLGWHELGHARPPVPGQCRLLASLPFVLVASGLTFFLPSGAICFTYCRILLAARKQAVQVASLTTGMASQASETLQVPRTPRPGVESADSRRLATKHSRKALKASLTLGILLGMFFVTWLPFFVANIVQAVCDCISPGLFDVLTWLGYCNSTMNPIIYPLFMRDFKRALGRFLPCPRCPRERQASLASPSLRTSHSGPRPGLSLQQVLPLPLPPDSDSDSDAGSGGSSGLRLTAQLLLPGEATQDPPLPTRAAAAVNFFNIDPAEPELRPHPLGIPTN
Chain of D(2) dopamine receptor (P61169 whole entry): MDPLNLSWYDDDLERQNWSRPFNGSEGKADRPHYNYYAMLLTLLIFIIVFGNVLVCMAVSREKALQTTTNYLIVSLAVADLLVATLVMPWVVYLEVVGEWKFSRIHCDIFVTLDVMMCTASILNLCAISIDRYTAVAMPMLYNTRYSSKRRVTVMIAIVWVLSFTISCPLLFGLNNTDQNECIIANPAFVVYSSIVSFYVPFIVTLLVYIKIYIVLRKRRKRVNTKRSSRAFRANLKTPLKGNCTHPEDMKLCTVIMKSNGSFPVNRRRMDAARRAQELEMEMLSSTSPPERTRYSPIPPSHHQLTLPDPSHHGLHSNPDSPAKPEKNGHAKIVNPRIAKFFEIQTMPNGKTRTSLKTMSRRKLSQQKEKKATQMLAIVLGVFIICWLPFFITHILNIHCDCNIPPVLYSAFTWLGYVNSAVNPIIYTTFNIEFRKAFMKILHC
Chain of 5-hydroxytryptamine receptor 7 (P34969 whole entry): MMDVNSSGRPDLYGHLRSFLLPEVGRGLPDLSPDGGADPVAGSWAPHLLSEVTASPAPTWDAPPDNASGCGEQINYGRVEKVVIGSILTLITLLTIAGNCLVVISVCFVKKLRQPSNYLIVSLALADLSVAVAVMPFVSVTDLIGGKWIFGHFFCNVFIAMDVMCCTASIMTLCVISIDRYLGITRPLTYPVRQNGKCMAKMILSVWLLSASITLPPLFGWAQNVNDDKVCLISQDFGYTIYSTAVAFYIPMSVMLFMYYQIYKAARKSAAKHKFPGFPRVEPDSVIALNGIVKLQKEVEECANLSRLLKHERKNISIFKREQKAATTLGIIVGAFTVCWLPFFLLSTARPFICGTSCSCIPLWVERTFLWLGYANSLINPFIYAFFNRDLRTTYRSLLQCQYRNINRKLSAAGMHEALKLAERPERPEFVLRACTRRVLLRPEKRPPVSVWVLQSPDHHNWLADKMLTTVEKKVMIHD

COc1ccccc1N1CCN(CCCn2cnc3c2c(=O)n(C)c(=O)n3C)CC1
Ki [1]: 927 nM | Ki [2]: 2210 nM | Ki [3]: 12100 nM | Ki (D(2) dopamine receptor): 944 nM | Ki [4]: 119 nM

Cn1c(=O)c2c(ncn2CCCN2CCN(c3cccc(Cl)c3)CC2)n(C)c1=O
Ki [1]: 53 nM | Ki [2]: 2800 nM | Ki [3]: 20300 nM | Ki (D(2) dopamine receptor): 3190 nM | Ki [4]: 182 nM

CN1C(=O)CN=C(c2ccccc2)c2cc(Cl)ccc21
Activity (Mus musculus [5]): Active

CCOc1nc2c(c(=O)n(C)c(=O)n2C)n1CCCCN1CCN(c2ccccc2OC)CC1
Ki [2]: 54 nM

Cn1c(=O)c2c(ncn2CCCCN2CCc3ccccc3C2)n(C)c1=O
Ki [1]: 22000 nM | Ki [2]: 629 nM | Ki [3]: 11700 nM | Ki (D(2) dopamine receptor): 7820 nM | Ki [4]: 239 nM

Cl.Cn1c(=O)c2c(ncn2CCCCCN2CCN(c3cccc(Cl)c3)CC2)n(C)c1=O
Activity (Rattus norvegicus [6]): 0.5 | Activity (Rattus norvegicus [7]): 0.1 | Activity (Rattus norvegicus [8]): 0.3 | Activity (Mus musculus [9]): Active | inhibition (Mus musculus [10]): Dose-dependent effect | ED50 (Mus musculus [10]; ip, read-out: ID50 (the source's name)): 2.54 mg/kg | Activity (Mus musculus [11]): 8.2 | deltaT (Mus musculus [12]): -1.8 °C | deltaT (Mus musculus [13]): -1.3 °C | Activity (Mus musculus [14]): 5.8 | deltaT (Mus musculus [15]): 0.3 °C | Ki [1]: 54 nM | Ki [2]: 131 nM | deltaT (Mus musculus [16]): -1.4 °C | deltaT (Mus musculus [17]): -2 °C | Activity (Rattus norvegicus [18]): 1.1 | Activity (Mus musculus [19]): Non-toxic | Activity (Mus musculus [20]): 1.3 | Ki [3]: 1200 nM | Ki (D(2) dopamine receptor): 40 nM | Activity (Mus musculus [21]): 71% | deltaT (Mus musculus [22]): -2.2 °C | deltaT (Mus musculus [23]): -1.5 °C | Activity (Mus musculus [24]): 10.8 | deltaT (Mus musculus [25]): -1.8 °C | Activity (Mus musculus [26]): Non-toxic | Activity (Mus musculus [27]): 12.8 | Ki [4]: 5 nM | deltaT (Mus musculus [28]): -1.1 °C | Activity (Mus musculus [29]): 57% | Activity (Mus musculus [30]): inactive | deltaT (Mus musculus [31]): -2.1 °C | Activity (Rattus norvegicus [32]): 1.8 | Activity (Rattus norvegicus [33]): 0.2

Cn1c(=O)c2c(ncn2CCCCN2CCN(c3cccc(Cl)c3Cl)CC2)n(C)c1=O
Ki [1]: 162 nM | Ki [2]: 73 nM | Ki [3]: 68 nM | Ki (D(2) dopamine receptor): 15 nM | Ki [4]: 55 nM

Cn1c(=O)c2c(nc(N3CCOCC3)n2CCCCN2CCN(c3cccc(Cl)c3)CC2)n(C)c1=O
Ki [1]: 21 nM | Ki [2]: 112 nM | Ki [3]: 207 nM | Ki [4]: 22 nM
